Results taken from patent US11773183B2, “MUC16 monoclonal antibody and uses thereof” (QUEST PHARMATECH INC., priority 2018, dated 2023).

Test system: T3M4 wildtype (WT) cells
Test: Live/Dead cell cytotoxicity assay, T3M4 wildtype cells
Assay type: cell-based, human
Conditions: 24 h
Procedure: Materials and Methods. T3M4 wildtype (WT) and COSMC deleted (SimpleCells, SC) were treated with equal amounts of mAR 9.6 (5 μg/ml) and POCmAb (5 μg/ml) or with isotype matched (either mouse or human) control IgG antibody for 24 h. For the comparison of effect of antibodies in inducing cell death, T3M4 WT cells were treated with Sapitinib (an ErbB receptor tyrosine kinase inhibitor, 5.4 μM) and LY294002 (PI3K/Akt inhibitor, 11.3 μM) alone or in combination with mAR9.6 (5 μg/ml) and POCmAb (5 μg/ml) for 24 h. The cells were washed well with cell-culture grade PBS. 20 μl ethidium homodimer-1 (EthD-1, 2 mM) was dissolved in 10 ml PBS. To this solution, 5 μl of calcein acetoxymethyl ester (calcein-AM, 4 mM) was added. 150 μl of this combined reagent was added to the cells grown on coverslip and incubated for 30-45 minutes. The numbers of live and dead cells were detected with Zeiss LSM 710™ confocal laser scanning microscope (Carl Zeiss, Inc., Thornwood, NY, USA) at Confocal Laser Scanning Fluorescence Microscope Core Facility, UNMC. The ratio of dead cells to total cells was calculated for quantitative comparisons. Unpaired Student's t-test was performed to calculate the statistical significance between the antibodies treated T3M4 WT and T3M4 SC cells (n=4) (p<0.05 considered statistically significant). Two way analysis of variance (ANOVA) was performed to calculate the statistical significance between the inhibitors and antibody treated T3M4 cells (n=4) (p<0.05 considered statistically significant).

[1] = inhibitor (Sapitinib 5.4 μM, LY294002 11.3 μM) with human IgG isotype control
[2] = inhibitor (Sapitinib 5.4 μM, LY294002 11.3 μM) with mouse IgG isotype control

SMILES	cell death (ratio of dead cells to total cells) [1]	cell death (ratio of dead cells to total cells) [2]
O=c1cc(N2CCOCC2)oc2c(-c3ccccc3)cccc12 [LY294002]	about 15%	about 15%
CNC(=O)CN1CCC(Oc2cc3c(Nc4cccc(Cl)c4F)ncnc3cc2OC)CC1 [Sapitinib]	about 17%	about 17%
